pIC50: −log10 of the molar value.
Legend:
11β-HSD1 = biological target: T1, 11β-HSD1 (Homo sapiens, UniProt P28845); test: Human aortic smooth muscle cell assay; type: cell-based; conditions: primary human AoSMC, hTNFα-induced 11β-HSD1, cortisol formed from cortisone
T1 construct: hTNFα to induce expression of 11β-HSD1; endogenous in cells; host or cells: primary human aortic smooth muscle cells (AoSMC), induced with hTNFα
Experimental: Human Aortic Smooth Muscle Cell Assay
Primary human aortic smooth muscle cells (AoSMC) are cultured in 5% FBS growth medium to a passage number of 6, then pelleted by centrifugation and resuspended at a density of 9×10^4 cells/mL in 0.5% FBS assay medium containing 12 ng/mL hTNFα to induce expression of 11β-HSD1. Cells are seeded into 96-well tissue culture assay plates at 100 μL/well (9×10^3 cells/well) and incubated for 48 hours at 37° C., 5% CO2. Following induction, cells are incubated for 4 hours at 37° C., 5% CO2 in assay medium containing test compounds then treated with 10 μL/well of 10 μM cortisone solubilized in assay medium, and incubated for 16 hours at 37° C., 5% CO2. Medium from each well is transferred to a plate for subsequent analysis of cortisol using a competitive fluorescence resonance time resolved immunoassay. […] Higher levels of free cortisol result in diminishing energy transfer from the Europium-IgG to the APC-cortisol complex resulting in less APC fluorescence. Fluorescent intensities for Europium and APC are measured using a LJL Analyst AD. Europium and APC […] is measured using 360 nm excitation and 615 nm and 650 nm emission filters respectively. […] Fluorescent intensities measured for APC are modified by dividing by the Eu fluorescence (APC/Eu). […]

cortisone conversion = test: Acute in vivo cortisone conversion assay; conditions: male C57BL/6 mice, oral, cortisone challenge 16 hours post dose, serum cortisol
Experimental: Acute In Vivo Cortisone Conversion Assay
In general, compounds are dosed orally into mice, the mice are challenged with a subcutaneous injection of cortisone at a set timepoint after compound injection, and the blood of each animal is collected some time later. Separated serum is then isolated and analyzed for levels of cortisone and cortisol by LC-MS/MS, followed by calculation of mean cortisol and percent inhibition of each dosing group. Specifically, male C57BL/6 mice are obtained from Harlan Sprague Dawley at average weight of 25 grams. Exact weights are taken upon arrival and the mice randomized into groups of similar weights. Compounds are prepared in 1% w-w HEC, 0.25% w-w polysorbate 80, 0.05% w-w Dow Corning antifoam #1510-US at various doses based on assumed average weight of 25 grams. Compounds are dosed orally, 200 μl per animal, followed by a subcutaneous dose, 200 μl per animal, of 30 mg/kg cortisone at 1 to 24 hours post compound dose. At 10 minutes post cortisone challenge, each animal is euthanized for 1 minute in a CO2 chamber, followed by blood collection via cardiac puncture into serum separator tubes. Once fully clotted, tubes are spun at 2500×g, 4° C. for 15 minutes, the serum transferred to wells of 96-well plates (Corning Inc, Costar #4410, cluster tubes, 1.2 ml, polypropylene), and the plates are frozen at −20° C. until analysis by LC-MS/MS. […]

T1 sequence (P28845 whole entry): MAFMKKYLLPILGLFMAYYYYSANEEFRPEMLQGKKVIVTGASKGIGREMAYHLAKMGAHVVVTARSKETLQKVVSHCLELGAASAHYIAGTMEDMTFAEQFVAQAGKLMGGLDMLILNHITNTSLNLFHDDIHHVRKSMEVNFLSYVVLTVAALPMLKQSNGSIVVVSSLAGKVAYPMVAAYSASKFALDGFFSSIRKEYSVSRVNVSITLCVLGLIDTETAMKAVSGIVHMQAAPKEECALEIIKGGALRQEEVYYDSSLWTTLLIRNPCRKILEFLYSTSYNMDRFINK

Row | Structure (SMILES) | pIC50 (11β-HSD1) | % Inhibition after 16 hours (cortisone conversion; dose of 10 mg/kg) | % Inhibition after 16 hours (cortisone conversion; dose of 30 mg/kg)
1 | O=C(c1ccc(-c2cc(Cl)c(CN3CCC(N4CCCCC4)C3=O)c(Cl)c2)cc1)N1CCC(C(F)(F)F)CC1 (racemic) [Example 16, 1-[3,5-Dichloro-4′-(4-trifluoromethyl-piperidine-1-carbonyl)-biphenyl-4-ylmethyl]-3-piperidin-1-yl-pyrrolidin-2-one] | 6.53 | 38 (dose of 10 (mg/kg)) % | –
2 | O=C(c1ccc(-c2cc(Cl)c(CN3CCC(C4CCCCC4)C3=O)c(Cl)c2)cc1)N1CCN(CCF)CC1 (racemic) [Example 5, 3-Cyclohexyl-1-{3,5-dichloro-4′-[4-(2-fluoro-ethyl)-piperazine-1-carbonyl]-biphenyl-4-ylmethyl}-pyrrolidin-2-one] | 7.81 | – | 84 (dose of 30 (mg/kg)) %
